Molecules are shown by their SMILES.

Data on one compound can be found in patent US7625887B2, “Receptor agonists” (Takeda Pharmaceutical Company Limited, priority 2003, dated 2009).

The subject of test [1] is guinea pig intestine primary culture cells. Nature of the test: GLP-1 secretion from guinea pig intestine primary culture cells. Particulars: bile acid 50 μM, 90 min. The format is cell-based. The procedure: Colon mucous membrane of guinea pig (Hartley, male, Charles River Japan, Inc.) was removed and subjected to an enzyme treatment to give a cell dispersion according to the following method.
(§1) The enzyme solution used was obtained by dissolving 5 mg/ml Collagenase (Sigma), 5 mg/ml Hyaluronidase (Sigma) and 0.5 mg/ml DNaseI (Sigma) in a medium. The medium used was Dulbecco's Modified Eagle Medium (DMEM, Invitrogen) supplemented with 4.5 g/l Glucose, 5% FBS (Invitrogen), 100 units/ml Penicillin (Invitrogen), 100 μg/ml Streptomycin (Invitrogen), 50 μg/ml Gentamicin (Invitrogen) and 20 mM Hepes (pH 7.3). After digestion by the enzyme solution at 37° C., the tissue sections were prepared into dispersed cells by passing through a pipette 4 times and the cells were collected. The collected cells were washed with a buffer (incubation buffer) obtained by adding 5.5 mM Glucose and 0.1% BSA to a modified Krebs-Ringer bicarbonate buffer (KRBH, 116 mM NaCl, 4.7 mM KCl, 1.2 mM KH2PO4, 1.2 MM MgSO4, 2.5 mM CaCl2, 25 mM NaHCO3, 24 mM HEPES, pH 7.3), and preincubated at 37° C. under 5% CO2 for 30 min. 0.1 μM Phorbol ester (Wako), 1% DPPIV inhibitor (Linco) and a test compound were added to the above-mentioned incubation buffer, and the obtained buffer was added to the cells after the aforementioned preincubation and incubated for 90 min. The culture supernatant was collected and cryopreserved. The concentration of GLP-1 released in the culture supernatant was measured using an ELISA kit (Linco).

Test [2] has as its system rat intestine primary culture cells. Nature of the test: GLP-1 secretion from rat intestine primary culture cells. The format is cell-based. Particulars: bile acid 100 μM, 150 min. The protocol: Terminal ileum and colon mucous membrane were removed from rat (Wistar, male, Charles River Japan, Inc.) and subjected to an enzyme treatment to give a cell dispersion according to the following method.
as §1, with “pipette 7” for “pipette 4”, “1.2 mM” for “1.2 MM”, “for 150” for “for 90”

The next test deals with NCI-H716 cells. The test is described as follows: intracellular cAMP production increasing action in NCI-H716 cells. Particulars: bile acid 50 μM, 2 hrs; production amount in TLCA (50 μM) was 100%; Base 11. The class given is cell-based, human.
Test [3] deals with guinea pig peripheral blood mononuclear cells. The test is described as follows: IL-6 secretion in LPS-stimulated guinea pig peripheral blood mononuclear cells. The format is cell-based. Particulars: 16 hrs, bile acid 50 μM; non-addition: 520 with LPS, 32 without. The procedure: The peripheral blood was taken from guinea pig, and mononuclear cell fraction was obtained by a density separation method using Ficoll-Paque PLUS (Amersham Pharmacia). The fraction at a concentration of 1×10^5/well was cultured for 16 hrs in the presence of […] LPS in a 96-well plate upon addition of bile acid or a test compound. The culture supernatant was collected and TNF and IL-6 in the supernatant were quantitated.
The quantitation of IL-6 in the culture supernatant was performed using IL-6 dependent cell line 7TD1 (RIKEN Institute) with its growth promoting action as an index. First, 7TD1 cells were suspended in a basic medium (RPMI1640 (Invitrogen) supplemented with 1% non-essential amino acid (Invitrogen) and 55 μM 2-mercaptoethanol (Invitrogen)) and seeded in a 96-well plate at a concentration of 2×10^3/well. Immediately after seeding, peripheral blood mononuclear cell culture supernatant diluted with a dilution medium (the above-mentioned basic medium supplemented with 10% FBS) was added and the cells were cultured for 2 days. The IL-6 content was determined by measuring the growth of the 7TD1 cells in the obtained culture product using a CellTiter-Glo (Promega). As the standard sample, human recombinant IL-6 (Genzyme) was used.

In the case of `C[C@H](CCC(=O)NCCS(=O)(=O)O)[C@H]1CC[C@H]2[C@@H]3CC[C@@H]4C[C@H](O)CC[C@]4(C)[C@H]3CC[C@]12C` [TLCA, taurolithocholic acid, reference compound], the figures for the “GLP-1 (% relative to non-addition)” value in test [1] and in test [2] were 400 % relative to non-addition and 290 % relative to non-addition, respectively. Also, the “cAMP production increasing activity (%)” value in the test with NCI-H716 cells is recorded as 100%. For the same compound, the “IL-6” value in test [3] was 260 pg/mL.
